The values that follow come from EP3638283B1, “ANTAGONISTS OF CAV2.3 R-TYPE CALCIUM CHANNELS FOR THE TREATMENT OF NEURODEGENERATIVE DISEASES” (Lario Therapeutics Ltd., priority 2017, dated 2018).

Data set [1] relates to SN DA neurons. Particulars: neurotoxin PD-mouse models; pharmacological L-type calcium channel inhibition (Ilijic et al., 2011; Ortner et al., 2017); cited from earlier work.
Data set [2] relates to SN DA neurons. As to the kind of experiment: Dopamine auto-inhibition of SN DA neuron pacemaker activity, patch-clamp recordings in mouse brain slices. In kind it is cell-based. The following applies: isradipine 300nM; dopamine 100 µM. On the technique in general: In patch-clamp work, channel activity is measured electrically.
In data set [3] the test system is SN DA neurons. The following applies: cited from earlier work.
The conditions of data set [4]: Parkinson Study, 2013; cited from earlier work.
In data set [5] the test system is SN DA neurons. Format: cell-based, mouse.
Data set [6] concerns the target T1, voltage-sensitive A-type Kv4.3 K+ channels (Homo sapiens, UniProt Q9UK17).
T1 sequence (Q9UK17 1-655): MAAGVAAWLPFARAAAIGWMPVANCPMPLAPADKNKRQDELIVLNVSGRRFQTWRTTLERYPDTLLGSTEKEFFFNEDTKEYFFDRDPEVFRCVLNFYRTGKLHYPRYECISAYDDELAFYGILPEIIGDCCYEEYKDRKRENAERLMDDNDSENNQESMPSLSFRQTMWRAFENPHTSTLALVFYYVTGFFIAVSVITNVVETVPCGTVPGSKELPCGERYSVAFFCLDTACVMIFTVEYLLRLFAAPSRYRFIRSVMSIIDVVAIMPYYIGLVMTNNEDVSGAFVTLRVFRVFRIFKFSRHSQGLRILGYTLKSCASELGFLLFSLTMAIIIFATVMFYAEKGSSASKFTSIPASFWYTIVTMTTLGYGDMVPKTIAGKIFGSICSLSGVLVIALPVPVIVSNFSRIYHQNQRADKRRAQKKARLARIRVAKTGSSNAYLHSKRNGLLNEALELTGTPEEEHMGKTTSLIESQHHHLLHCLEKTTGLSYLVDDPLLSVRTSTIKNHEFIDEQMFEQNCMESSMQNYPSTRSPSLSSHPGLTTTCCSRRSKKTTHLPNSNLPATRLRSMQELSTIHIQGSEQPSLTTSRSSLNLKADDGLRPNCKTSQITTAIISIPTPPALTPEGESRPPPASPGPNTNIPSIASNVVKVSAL
The following applies: Kimm & Bean 2014; cited from earlier work.

Data set [7] has as its system SN DA neurons. In kind it is cell-based, mouse. This is another data set of the same source.

Read-outs that look alike come from different tables or passages of the source.

Consider `COC(=O)C1=C(C)NC(C)=C(C(=O)OC(C)C)C1c1cccc2nonc12` (stereo not drawn) [isradipine], for which the “SN DA neuroprotection” value in the data set on SN DA neurons [1] was “inconclusive findings”. In the data set on SN DA neurons [2], the “sensitized dopamine-autoinhibition of SN DA neurons” value is given as “did not substantially alter”. The “somatic activity-dependent Ca^2+ oscillations” value in the data set with SN DA neurons [3] (cell body of WT SN DA neurons, in the presence of isradipine (Ortner et al., 2017)) was “not significantly affected”. Moreover, the “sensitivity of activity-dependent Ca^2+ oscillations in SN DA neurons to the blocker” value in the data set with SN DA neurons [3] (distal dendrites versus cell-bodies (Guzman et al., 2010; Ortner et al.)) was “only in distal dendrites but not in the cell-bodies”. The maximal tolerable dosis in data set [4] is given as 10 mg/day.
For the molecule SNX-482, the “D2-AR responses of adult SN DA neurons (dopamine-autoinhibition)” value with SN DA neurons [5] is “desensitized D2-AR responses”. For the same molecule, the “affinity of inhibition of A-type Kv4.3 K+ channels” value in data set [6] was “high nanomolar affinity”. Besides, the “action potential-induced somatic Ca^2+ transients” value in the data set with SN DA neurons [7] is “significantly reduced”.
For the molecule ω-conotoxin MVIIC [[…]-conotoxin MVIIC], the “sensitized dopamine-autoinhibition of SN DA neurons” value in the data set with SN DA neurons [5] is “did not substantially alter”.
